# Data published in patent US9867798B2, “Ladostigil therapy for immunomodulation” (priority 2012, dated 2018).
# What was measured:
# [1] = test system: IL-1β and MPO in colon; assay: Cytokines and myeloperoxidase in colon of DSS-treated mice; type: in vivo; conditions: 8th day of DSS ingestion, 5 vs 10 mg/kg
# Method: TNF-α, IL-6, and IL-1β levels in homogenized colon were measured by means of a BioLegend ELISA Mouse kit. One cm of colon was homogenized in ice-cold PBS buffer containing protease inhibitor cocktail (Sigma, St. Louis, Mo., USA; dilution 1:100) using a Polytron homogenizer, and then centrifuged for 15 min at 14,000 rpm at 4° C. Supernatants were diluted 1:5 in diluent buffer supplied in the kit and applied to 96-well MaxiSorb Elisa plates according to manufacturer's protocol. Total protein concentration in the tissue supernatant was measured by means of a BCA kit. Levels of cytokines are expressed as pg/mg total tissue protein.
# Neutrophil infiltration was monitored by measuring myeloperoxidase (MPO) activity in colon segments according to the protocol described by Bradley (1982) in 96-well micro-titer plates by mixing 10 μl of the supernatant with 290 μl of o-dianisidine dihydrochloride solution. Data were interpolated from a MPO standard curve. MPO activity was expressed as units per μg total protein measured in the sample by Pierce BCA Protein Assay Kit as described above.
# [2] = test system: ChE; assay: ChE inhibition in heart or brain of treated rats; type: in vivo
# [3] = test system: cholinesterase (AChE and BuChE); assay: Cholinesterase activity in spleen and colon of mice drinking DSS (Ellman); type: in vivo; conditions: for ChE activity colon / ChE activity spleen: DSS 5%, 8 days
# Method: BALB/c OlaHsd male mice aged 8-9 weeks and weighing 25-30 g were purchased from Harlan (Jerusalem, Israel) and housed in standard cages of up to 5 per cage in the pathogen free Animal Facility of the Institute for Drug Research. All experiments were performed in accordance with the Principles of Laboratory Animal Care (NIH publication #85-23, revised 1985) protocols MD-09-12197-4. Acute colitis was induced in mice by administration of 5% DSS solution (M.Wt.=[…], MP Biomedicals, LLC, Solon, Ohio, USA) in water for 8 days. The DSS solution was freshly prepared every day. Mice were provided with food and water or DSS solution ad libitum during the experiment. They were divided into groups of 10 as follows: Vehicle control group: mice drank water and were given water (1 ml/100 gm) once daily by gavage for 8 days; Drug control group: mice drank water and were given ladostigil (10 mg/kg) by gavage once daily for 8 days. DSS untreated group: mice drank 5% DSS for 7 days and water on the 8th day and were given water (1 ml/100 g) once daily by gavage for 8 days. Drug treated group: mice drank 5% DSS followed by water as above and were given ladostigil (5 or 10 mg/kg) by gavage once daily for 8 days. The volume of 5% DSS solution consumed was measured for each group of mice and the average volume/mouse was calculated. On the eighth day, the mice were anesthetized by CO2 and sacrificed by cervical dislocation 2 h after the last dose of ladostigil. Samples of colon and spleen were taken for measurement of cytokines MPO, cytokines and ChE activity.
# In experiments on the effect of chronic treatment with ladostigil on ChE activity in mice drinking DSS, the spleen was rapidly removed as described above, together with a colon segment of about 0.5 cm in length taken from the proximal area. Spleen and colon segments were washed in cold phosphate buffered saline (PBS) before they were frozen at −80° C. For assay, the tissue was unfrozen and weighed and PBS was added to each tissue at a ratio of 1 mg tissue to 1 ml. Tissues were homogenized at a speed of 24,000 rpm in cold phosphate buffer pH 7 containing 0.1% Triton and centrifuged at 14000 rpm. Aliquots of plasma and the supernatant from the spleen and colon were incubated with acetylthiocholine and dinitro benzoic acid in phosphate buffer pH 7 and the rate of development of the yellow color was measured as described by Ellman et al, (1961). Percent inhibition of ChE activity was calculated by comparison with that of control mice given water by gavage. Protein concentration was determined by means of by Pierce BCA Protein Assay Kit (Thermo Scientific, USA) according to the manufacturer's instructions. It is noted, that ChE activity in the colon and spleen of mice is attributed mainly to that of AChE while that in mouse plasma is mainly attributable to BuChE.
# [4] = test system: LPS-induced TNF-α, IL-1β and IL-6 in spleen; assay: Cytokines in spleen of mice injected with LPS, comparison to rivastigmine (Example 5); type: in vivo, Balb/c mice; conditions: for IL-1β in spleen / IL-6 in spleen / TNF-α in spleen: four hours
# Method: Male Balb/c mice (aged 8-9 weeks, weighing 25-30 gm) were given ladostigil (10 or 20 mg/kg) or rivastigmine (0.5 or 1 mg/kg) by gavage, or water (1 ml/100 g), followed 15 min later by an intra-peritoneal injection of LPS (10 mg/kg). Control mice were given LPS and water by gavage (1 ml/100 g). For measurement of cytokine levels in the spleen and blood the mice were sacrificed 4 h after drug administration, blood collected in heparinized tubes and centrifuged to obtain plasma and the spleen was rapidly removed and weighed. Plasma and spleen were frozen in liquid nitrogen and stored at −80° C. until use. For measurement of cytokine levels, the tissue was diluted in PBS containing 0.8% NaCl, 0.144% NaHPO4, 0.024% KH2PO4 and protease inhibitor cocktail (Sigma Israel, P8340) and homogenized in an Ultra-TURRAX® homogenizer at a speed of 24,000 rpm, centrifuged at 14000 g for 15 min at 4° C. Cytokines were detected in the supernatant by using ELISA kits for cytokines IL-1β, IL-6, and TNF-α (Biolegend) following the manufacturer's protocol. Each experiment was performed twice with 8 replicate measures in each experiment. Protein concentration in each sample was determined with Bradford reagent (Bio-RAD, 500-0006).
# [5] = ladostigil 10 mg/kg + LPS 10 mg/kg
# [6] = ladostigil 20 mg/kg + LPS 10 mg/kg
structure (smiles),measurement,setting,value
"C#CCN[C@@H]1CCc2ccc(OC(=O)N(C)CC)cc21 [Ladostigil, R(+)-6-(N-methyl, N-ethyl-carbamoyloxy)-N′-propargyl-1-aminoindan]",Reduction of IL-1β levels and MPO activity in colon,[1],5 mg/kg was more effective than 10 mg/kg
same,ChE inhibition in the heart or brain,[2]; 1 mg/kg/day,No significant ChE inhibition
same,ChE activity inhibited,[2]; 8.5 mg/kg/day,30%
same,Inhibition of ChE in the colon,[3]; 5 or 10 mg/kg,Neither dose of ladostigil caused any significant inhibition
same,ChE activity colon,[3]; 5 mg/kg orally once daily,18.5 ± 1.4 μmoles of acetylthiocholine hydrolyzed/min/mg protein
same,ChE activity spleen,[3]; 5 mg/kg orally once daily,10.8 ± 0.6 μmoles of acetylthiocholine hydrolyzed/min/mg protein
same,ChE activity colon,[3]; 10 mg/kg orally once daily,16.7 ± 1.2 μmoles of acetylthiocholine hydrolyzed/min/mg protein
same,ChE activity spleen,[3]; 10 mg/kg orally once daily,10.2 ± 0.7 μmoles of acetylthiocholine hydrolyzed/min/mg protein
same,Reduction of IL-1β levels in spleen,[4]; ladostigil 10 mg/kg + LPS,31.1±4.3%
same,Reduction of IL-6 levels in spleen,[4]; ladostigil 10 mg/kg + LPS,50.0±7.2%
same,Reduction of TNF-α levels in spleen,[4]; ladostigil 10 mg/kg + LPS,49.7±7.6%
same,IL-1β in spleen,[4]; [5],401 ± 40 pg/mg
same,IL-6 in spleen,[4]; [5],351 ± 50 pg/mg
same,TNF-α in spleen,[4]; [5],9.6 ± 1.5 pg/mg
same,Effect on TNF-α or IL-1β levels in spleen,[4]; ladostigil 20 mg/kg + LPS,had no effect
same,Reduction of IL-6 levels in spleen,[4]; ladostigil 20 mg/kg + LPS,42.7±8.3%
same,IL-1β in spleen,[4]; [6],591 ± 17 pg/mg
same,IL-6 in spleen,[4]; [6],454 ± 59 pg/mg
same,TNF-α in spleen,[4]; [6],17.1 ± 1.9 pg/mg
